Data reported in ChEMBL document CHEMBL1125442, “Amide bond replacements incorporated into CCK-B selective "dipeptoids"” (J Med Chem, 1992).
Several values for one entry are separate records, joined by “and”; a condition that tells them apart may be missing. Equal values may be shown once.

Experiments:
[1] = target: Cholecystokinin receptor type A (Rattus norvegicus) (UniProt P30551); test: Inhibition of [125I]CCK-8 binding to cholecystokinin type A receptor in the rat pancreas
[2] = target: Gastrin/cholecystokinin type B receptor (Mus musculus) (UniProt P56481); test: Inhibition of [125I]CCK-8 binding to cholecystokinin type B receptor in the mouse cerebral cortex
[3] = Selectivity ratio defined as the ratio of IC50(CCK-A)/IC50(CCK-B)

SMILES | IC50 [1] [µM] | IC50 [2] [µM] | Ratio [3]
O=C(NC(CNC(CO)Cc1ccccc1)Cc1c[nH]c2ccccc12)OC1[C@H]2C[C@@H]3C[C@@H](C[C@H]1C3)C2 (some centres not stated) | 1.25 | 11.5 | 0.11
CCOC(=O)CCC(=O)N(CCc1ccccc1)CC(C)(Cc1c[nH]c2ccccc12)NC(=O)OC1[C@H]2C[C@@H]3C[C@@H](C[C@H]1C3)C2 (some centres not stated) | 0.67 | 1.63 | 2.3
O=C(NC(Cc1c[nH]c2ccccc12)C(=O)OC(CO)Cc1ccccc1)OC1[C@H]2C[C@@H]3C[C@@H](C[C@H]1C3)C2 (some centres not stated) | 2.95 | 1.89 | 1.6
CCOC(=O)CCCCCC(=O)N(CCc1ccccc1)CC(C)(Cc1c[nH]c2ccccc12)NC(=O)OC1[C@H]2C[C@@H]3C[C@@H](C[C@H]1C3)C2 (some centres not stated) | 3.53 | 0.863 | 4.1
CN(C(=O)C(Cc1c[nH]c2ccccc12)NC(=O)OC1[C@H]2C[C@@H]3C[C@@H](C[C@H]1C3)C2)C(CO)Cc1ccccc1 (some centres not stated) | 1.08 | 1.46 | 0.74
O=C(NC(Cc1c[nH]c2ccccc12)/C(S)=N/C(CO)Cc1ccccc1)OC1[C@H]2C[C@@H]3C[C@@H](C[C@H]1C3)C2 (some centres not stated) | – | – | 1.2
O=C(NC(Cc1c[nH]c2ccccc12)C(=O)NC(CO)Cc1ccccc1)OC1[C@H]2C[C@@H]3C[C@@H](C[C@H]1C3)C2 (some centres not stated) | 1.08 | 0.852 | 1.3
COC(=O)CCC(=O)N[C@H](COC(=O)C(C)(Cc1c[nH]c2ccccc12)NC(=O)OC1[C@H]2C[C@@H]3C[C@@H](C[C@H]1C3)C2)c1ccccc1 (some centres not stated) | 0.351 | 0.0712 | 4.9
O=C(NC(Cc1c[nH]c2ccccc12)C(=S)NC(CO)Cc1ccccc1)OC1[C@H]2C[C@@H]3C[C@@H](C[C@H]1C3)C2 (some centres not stated) | 1.98 | 1.59 | –

Second part, the compound after the results:

IC50 [1] [µM] | IC50 [2] [µM] | Ratio [3] | SMILES
1.19 | 0.932 | 1.3 | CC(Cc1c[nH]c2ccccc12)(NC(=O)OC1[C@H]2C[C@@H]3C[C@@H](C[C@H]1C3)C2)C(=O)SCCc1ccccc1 (some centres not stated)
0.757 | 0.123 | 6.2 | CN(CCc1ccccc1)C(=O)C(C)(Cc1c[nH]c2ccccc12)NC(=O)OC1[C@H]2C[C@@H]3C[C@@H](C[C@H]1C3)C2 (some centres not stated)
19.5 | 8.69 | 2.2 | CC(CCCCc1ccccc1)(Cc1c[nH]c2ccccc12)NC(=O)OC1[C@H]2C[C@@H]3C[C@@H](C[C@H]1C3)C2 (some centres not stated)
– | – | 1.9 | CC(Cc1c[nH]c2ccccc12)(NC(=O)OC1[C@H]2C[C@@H]3C[C@@H](C[C@H]1C3)C2)/C(S)=N/CCc1ccccc1 (some centres not stated)
1.07 | 0.547 | 2 | CC(Cc1c[nH]c2ccccc12)(NC(=O)OC1[C@H]2C[C@@H]3C[C@@H](C[C@H]1C3)C2)C(=O)OCCc1ccccc1 (some centres not stated)
1.5 | 0.808 | – | CC(Cc1c[nH]c2ccccc12)(NC(=O)OC1[C@H]2C[C@@H]3C[C@@H](C[C@H]1C3)C2)C(=S)NCCc1ccccc1 (some centres not stated)
2.62 | 1.97 | – | CC(Cc1c[nH]c2ccccc12)(NC(=O)OC1[C@H]2C[C@@H]3C[C@@H](C[C@H]1C3)C2)C(O)CCCc1ccccc1 (some centres not stated) [listing 1 of 3 here]
– | – | 1.3 and 2.1 | CC(Cc1c[nH]c2ccccc12)(NC(=O)OC1[C@H]2C[C@@H]3C[C@@H](C[C@H]1C3)C2)C(O)CCCc1ccccc1 (some centres not stated) [listing 2 of 3 here]
1.23 | 0.595 | – | CC(Cc1c[nH]c2ccccc12)(NC(=O)OC1[C@H]2C[C@@H]3C[C@@H](C[C@H]1C3)C2)C(O)CCCc1ccccc1 (some centres not stated) [listing 3 of 3 here]
1.08 | 1.27 | 0.85 | CC(Cc1c[nH]c2ccccc12)(CN(CCc1ccccc1)C(=O)CCC(=O)O)NC(=O)OC1[C@H]2C[C@@H]3C[C@@H](C[C@H]1C3)C2 (some centres not stated)
